Converted amounts (≈) assume the structure as drawn. The source made the active and inactive calls.

Data set [1] deals with T1, Sigma intracellular receptor 2 (Rattus norvegicus, UniProt Q5U3Y7).
T1 sequence (Q5U3Y7 whole entry): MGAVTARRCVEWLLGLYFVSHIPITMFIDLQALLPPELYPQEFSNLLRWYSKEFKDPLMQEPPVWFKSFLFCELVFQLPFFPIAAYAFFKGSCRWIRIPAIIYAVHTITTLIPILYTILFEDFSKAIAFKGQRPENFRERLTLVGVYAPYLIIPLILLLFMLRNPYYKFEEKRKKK
Briefly: biochemical.

The target in data set [2] is T2, Sigma non-opioid intracellular receptor 1 (Cavia porcellus, UniProt Q60492). Briefly: biochemical.
The subject of data set [3] is Mus musculus. Put plainly: Antinociceptive activity in sc dosed wild type CD1 mouse model of capsaicin-induced mechanical hypersensitivity assessed as reduction in mechanical hypersensitivity. Type of data set: functional.
The target of data set [4] is T2, Sigma non-opioid intracellular receptor 1.
Data set [5] can be described thus: Induction of motor coordination impairment in wild type CD1 mouse assessed as latency to fall at 5 mg/kg, sc in presence of sigma-1 receptor […] BD-1063 at 5 mg/kg, sc measured upto 4 hrs by rotarod test. It counts as toxicity, organism-based. The settings on record: in vivo. Background: In the rotarod test animals must keep their balance on a rotating rod.

In data set [6] the target is Kappa-type opioid receptor (Cavia porcellus, UniProt P41144). Briefly: Displacement of [3H]-U69593 from Dunkin-Hartley guinea pig brain membrane kappa opioid receptor incubated for 30 mins by liquid scintillation counting analysis. Type of data set: cell membranes. For orientation: Loss of bound radioactivity is the signal in a displacement assay; it reports binding, not function.

A further data set addresses Mu-type opioid receptor (Rattus norvegicus, UniProt P33535). Briefly: Displacement of [3H]-DAMGO from Sprague-Dawley rat brain membrane mu opioid receptor incubated for 45 mins by liquid scintillation counting analysis. Type of data set: cell membranes.
Data set [7] deals with Mus musculus. Put plainly: Analgesic activity in wild type CD1 mouse model of capsaicin-induced mechanical hypersensitivity assessed as reduction in mechanical hypersensitivity at 5 mg/kg, sc in presence of sigma-1 receptor antagonist BD-1063 at 5 mg/kg. Type of data set: functional.
Data set [8] concerns the target Delta-type opioid receptor (Rattus norvegicus, UniProt P33533). Put plainly: Displacement of [3H]-(2-D-Ala)[Tyrosy1-3,5-]-DELTORPHIN II from Sprague-Dawley rat brain membrane delta opioid receptor incubated for 45 mins by liquid scintillation counting analysis. It counts as cell membranes.
Data set [9] concerns Mus musculus. Put plainly: Analgesic activity in wild type CD1 mouse model of capsaicin-induced mechanical hypersensitivity assessed as reduction in mechanical hypersensitivity at 5 mg/kg, sc in presence of BD-1063 at 5 mg/kg and PRE-084 at 32 mg/kg. Type of data set: functional, organism-based.
Data set [10] in a line: Induction of H2S release in PBS buffer incubated for 1 hrs in presence of Washington State Probe-1 by spectrofluorimeter assay. Type of data set: functional.
In data set [11] the test system is Mus musculus. Put plainly: Antinociceptive activity in wild type CD1 mouse model of capsaicin-induced mechanical hypersensitivity assessed as reduction in mechanical hypersensitivity at 10 mg/kg, sc in presence of Sigma 1 receptor agonist PRE-084. Type of data set: functional, organism-based.
Data set [12] can be described thus: Induction of H2S release in PBS buffer at 100 uM in presence of Washington State Probe-1 by spectrofluorimeter assay. It counts as functional.
Data set [13] concerns Mus musculus. Put plainly: Analgesic activity in wild type CD1 mouse model of capsaicin-induced mechanical hypersensitivity assessed as reduction of capsaicin-induced mechanical hypersensitivity at 40 mg/kg, sc in presence of sigma1 receptor agonist PRE-084. It counts as functional, organism-based.
Data set [14] has as its system Mus musculus. Put plainly: Analgesic activity in wild type CD1 mouse model of capsaicin-induced mechanical hypersensitivity assessed as reduction of capsaicin-induced mechanical hypersensitivity at 10 to 40 mg/kg, sc. It counts as functional, organism-based. The settings on record: dose 10-40 mg/kg.
The nature of data set [15]: Stability of compound in phosphate buffer at pH 7.4 assessed as half life by UHPLC-PDA analysis. Type of data set: physicochemical.
Another data set concerns the target hERG (KCNH2) (Homo sapiens, UniProt Q12809). Put plainly: Inhibition of human ERG potassium channel expressed in CHO-K1 cells at 10 uM by Qube-automated patch clamp assay relative to control. It counts as toxicity, cell-based. The settings on record: CHO-K1 cells expressing human ERG potassium channel.
Data set [16] can be described thus: Induction of hypotension in wild type CD1 mouse assessed as mean arterial blood pressure at 30 to 40 mg/kg, sc incubated upto 45 mins by tail-cuff plethysmography. Type of data set: toxicity, organism-based. The settings on record: in vivo, 0.75 h, dose 30-40 mg/kg.
The target in data set [17] is Voltage-gated inwardly rectifying potassium channel KCNH2 (Homo sapiens, UniProt Q12809). Briefly: Inhibition of human ERG potassium channel expressed in CHO-K1 cells by Qube-automated patch clamp assay. Type of data set: toxicity, cell-based.
Data set [18] is described as follows: Induction of motor coordination impairment in wild type CD1 mouse assessed as latency to fall at 40 mg/kg, sc measured upto 4 hrs by rotarod test. Type of data set: toxicity, organism-based. The settings on record: in vivo.
Data set [19] in a line: Stability of compound in saline solution assessed as half life by UHPLC-PDA analysis. Type of data set: physicochemical.
The nature of data set [20]: Aqueous solubility of compound at 5 mg measured for 24 hrs by UHPLC-PDA analysis. It counts as physicochemical. The settings on record: water.
Data set [21] has as its target Sigma intracellular receptor 2 (Homo sapiens, UniProt Q5BJF2). Put plainly: Displacement of [3H]-di-o-tolylguanidine from Sigma 2-receptor (unknown origin).
Data set [22] addresses Sigma non-opioid intracellular receptor 1 (Homo sapiens, UniProt Q99720). Put plainly: Displacement of [3H]-pentazocine from Sigma 1-receptor (unknown origin).

Chain of Kappa-type opioid receptor (P41144 whole entry): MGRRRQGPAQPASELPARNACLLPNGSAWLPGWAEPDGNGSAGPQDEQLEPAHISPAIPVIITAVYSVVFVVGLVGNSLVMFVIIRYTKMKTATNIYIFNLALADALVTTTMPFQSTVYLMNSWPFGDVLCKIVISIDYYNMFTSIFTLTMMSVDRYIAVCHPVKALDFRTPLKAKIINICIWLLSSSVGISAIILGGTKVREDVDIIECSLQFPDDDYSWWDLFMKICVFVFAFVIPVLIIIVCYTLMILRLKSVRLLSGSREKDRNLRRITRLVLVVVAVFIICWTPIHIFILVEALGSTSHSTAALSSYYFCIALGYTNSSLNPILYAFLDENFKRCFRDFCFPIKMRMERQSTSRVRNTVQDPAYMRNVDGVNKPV
Chain of Delta-type opioid receptor (P33533 whole entry): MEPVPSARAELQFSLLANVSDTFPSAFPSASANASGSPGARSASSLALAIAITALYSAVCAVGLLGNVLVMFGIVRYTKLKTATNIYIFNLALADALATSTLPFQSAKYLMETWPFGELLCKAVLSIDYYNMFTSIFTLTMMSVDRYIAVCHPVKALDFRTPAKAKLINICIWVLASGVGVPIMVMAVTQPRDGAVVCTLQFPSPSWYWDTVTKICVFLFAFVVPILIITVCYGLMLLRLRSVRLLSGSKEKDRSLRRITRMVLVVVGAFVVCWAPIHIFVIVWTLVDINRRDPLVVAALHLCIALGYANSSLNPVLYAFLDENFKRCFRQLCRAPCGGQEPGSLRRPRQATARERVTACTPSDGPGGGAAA
Chain of Mu-type opioid receptor (P33535 whole entry): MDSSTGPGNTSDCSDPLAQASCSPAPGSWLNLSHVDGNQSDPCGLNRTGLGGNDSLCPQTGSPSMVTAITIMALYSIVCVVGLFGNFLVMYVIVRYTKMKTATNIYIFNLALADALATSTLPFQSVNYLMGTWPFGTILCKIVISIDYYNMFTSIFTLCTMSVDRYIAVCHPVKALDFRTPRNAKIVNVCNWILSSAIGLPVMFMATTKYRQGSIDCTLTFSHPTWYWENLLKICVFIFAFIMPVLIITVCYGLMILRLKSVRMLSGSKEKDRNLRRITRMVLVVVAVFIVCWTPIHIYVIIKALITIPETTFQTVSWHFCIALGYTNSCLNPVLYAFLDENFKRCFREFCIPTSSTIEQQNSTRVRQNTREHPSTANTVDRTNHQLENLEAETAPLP
T2 sequence (Q60492 whole entry): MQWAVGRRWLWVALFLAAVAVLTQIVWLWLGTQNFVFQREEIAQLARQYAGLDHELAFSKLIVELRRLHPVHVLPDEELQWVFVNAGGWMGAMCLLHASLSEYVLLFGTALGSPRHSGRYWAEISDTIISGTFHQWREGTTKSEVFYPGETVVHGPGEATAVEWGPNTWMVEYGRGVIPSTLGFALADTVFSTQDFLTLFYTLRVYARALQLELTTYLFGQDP
Chain of Sigma intracellular receptor 2 (Homo sapiens, UniProt Q5BJF2) (Q5BJF2 whole entry): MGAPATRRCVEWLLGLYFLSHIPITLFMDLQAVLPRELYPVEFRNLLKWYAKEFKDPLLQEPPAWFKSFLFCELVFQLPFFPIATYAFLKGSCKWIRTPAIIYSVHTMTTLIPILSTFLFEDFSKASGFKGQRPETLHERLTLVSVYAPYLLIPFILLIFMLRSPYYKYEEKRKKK
Chain of Sigma non-opioid intracellular receptor 1 (Homo sapiens, UniProt Q99720) (Q99720 whole entry): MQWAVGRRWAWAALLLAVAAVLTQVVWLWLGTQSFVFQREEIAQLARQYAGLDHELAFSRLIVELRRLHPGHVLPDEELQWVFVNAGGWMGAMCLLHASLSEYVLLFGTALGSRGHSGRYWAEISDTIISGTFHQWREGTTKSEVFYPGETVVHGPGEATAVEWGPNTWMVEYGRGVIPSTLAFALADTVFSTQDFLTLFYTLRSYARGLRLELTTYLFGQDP
Chain of Voltage-gated inwardly rectifying potassium channel KCNH2 (Q12809 whole entry): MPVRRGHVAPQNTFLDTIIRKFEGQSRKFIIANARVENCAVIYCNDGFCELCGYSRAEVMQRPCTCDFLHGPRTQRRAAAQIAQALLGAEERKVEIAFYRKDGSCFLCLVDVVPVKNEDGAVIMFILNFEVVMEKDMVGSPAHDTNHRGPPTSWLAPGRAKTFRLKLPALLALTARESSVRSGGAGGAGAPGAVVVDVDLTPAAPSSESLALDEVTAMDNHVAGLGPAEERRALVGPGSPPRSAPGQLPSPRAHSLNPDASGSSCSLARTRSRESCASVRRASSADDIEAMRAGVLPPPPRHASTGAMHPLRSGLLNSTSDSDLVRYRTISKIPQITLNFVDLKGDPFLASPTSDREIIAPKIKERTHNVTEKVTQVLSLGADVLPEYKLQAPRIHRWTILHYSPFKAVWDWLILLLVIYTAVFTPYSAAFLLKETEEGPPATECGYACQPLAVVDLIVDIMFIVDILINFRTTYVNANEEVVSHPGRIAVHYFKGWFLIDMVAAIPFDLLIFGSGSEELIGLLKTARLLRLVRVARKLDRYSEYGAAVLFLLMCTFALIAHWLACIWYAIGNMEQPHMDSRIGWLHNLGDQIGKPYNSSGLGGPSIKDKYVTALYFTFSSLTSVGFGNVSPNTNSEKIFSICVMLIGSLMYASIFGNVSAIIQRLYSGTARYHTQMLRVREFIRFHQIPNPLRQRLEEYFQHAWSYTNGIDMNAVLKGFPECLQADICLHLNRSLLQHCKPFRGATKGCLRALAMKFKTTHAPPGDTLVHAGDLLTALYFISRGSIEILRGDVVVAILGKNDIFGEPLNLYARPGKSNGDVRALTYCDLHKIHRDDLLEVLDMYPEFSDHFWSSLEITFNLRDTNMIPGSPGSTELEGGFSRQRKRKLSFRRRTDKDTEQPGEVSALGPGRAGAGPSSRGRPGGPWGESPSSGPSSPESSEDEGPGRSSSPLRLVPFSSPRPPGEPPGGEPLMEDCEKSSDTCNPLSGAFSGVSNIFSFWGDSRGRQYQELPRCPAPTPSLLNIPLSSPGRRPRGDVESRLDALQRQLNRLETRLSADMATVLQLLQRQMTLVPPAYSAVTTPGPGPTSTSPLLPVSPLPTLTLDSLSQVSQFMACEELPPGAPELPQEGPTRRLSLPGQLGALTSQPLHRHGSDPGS
Chain of hERG (KCNH2) (Q12809 whole entry): as above

In general, Ki refers to the dissociation constant of the complex between target and ligand, obtained from inhibition or displacement. A lower Ki goes with a stronger hold on the target. Consider `C[C@@H]1CCO[C@H]2Cn3cc(C(=O)NCc4ccc(F)cc4F)c(=O)c(O)c3C(=O)N12` [DOLUTEGRAVIR], for which the inhibition constant Ki in [1] was 0.018 µM; in data set [2] it was 0.124 µM.
A word on the ED50: it is the dose that gives a 50% effect, or the effect in half of the subjects. `CN1CCN(CCc2ccc(Cl)c(Cl)c2)CC1`: the ED50 with Mus musculus [3] was determined as 10.3 mg/kg. In addition, in data set [4], the affinity, expressed as Ki, was 0.014 µM.
As for `NC(=S)c1ccc(C(=O)O)cc1`, the ED50 in the data set on Mus musculus [3] amounted to 6.12 mg/kg; in the data set on Mus musculus [7] it was 7.52 mg/kg. The Activity result in data set [5] was “Non-Toxic”; in data set [10] it was 34.4 µM. Moreover, the Ki (in data set [6]; at Mu-type opioid receptor; in data set [8]) was greater than 10 µM in each case. Further, the ED75 in the data set on Mus musculus [7] was found to be 9.75 mg/kg. The ED90 in the data set with Mus musculus [7] was determined as 12.6 mg/kg. Besides, the outcome (in the data set with Mus musculus [9]; with Mus musculus [11]; in [12]) was Active.
In general, half-life refers to the time needed for the level to fall by half in the phase considered. A word on the inhibition: it is the percentage by which the read-out fell short of the control. Read a high inhibition as a strong effect. The IC50 is the point on the concentration scale where inhibition reaches its midpoint. In general, solubility refers to how much of the substance goes into solution per volume. The low end stands for a poorly soluble substance, the high end for a readily soluble substance. Turning to `NC(=S)c1ccc(C(=O)NC2CCN(Cc3ccccc3)CC2)cc1`, the result in the data set on Mus musculus [13] and with Mus musculus [14] was Active. Besides, the Ki (in data set [6]; at Mu-type opioid receptor; in data set [8]) was greater than 10 µM in each case. Further, the values for the half-life in [15] and in data set [19] were 1.55 h and 4.17 h, respectively. Testing at 10 µM on hERG (KCNH2) gave an inhibition of 60%. Besides, the results for the Activity in data set [10], in [16] and in data set [18] were 38.4 µM, “Non-Toxic” and “Non-Toxic”, respectively. This compound also returned an IC50 in data set [17] of 6.8 µM. Further, the solubility at 24 h in data set [20] is 1.25 µM (≈ 0.442 µg/mL).
Regarding `NC(=S)c1ccc(C(=O)OCCCCN2CCC(O)(c3ccc(Cl)cc3)CC2)cc1`, the Ki in data set [6] was greater than 10 µM; at Mu-type opioid receptor, greater than 10 µM; in [1] it was 0.266 µM; in data set [8], greater than 10 µM; in data set [2] it was 0.058 µM. Moreover, the Activity in data set [10] amounted to 41.8 µM.
As for `NC(=O)c1ccc(C(=O)N2CCN(Cc3ccccc3)CC2)cc1`, the outcome in the data set with Mus musculus [13] and in the data set with Mus musculus [14] was Active. In addition, the Ki was greater than 10 µM in data set [6]; 2.55 µM on Mu-type opioid receptor; greater than 10 µM in data set [1]; greater than 10 µM in data set [8]; greater than 5 µM in data set [2].
`NC(=S)c1ccc(C(=O)N2CCN(Cc3ccccc3)CC2)cc1`: in the data set with Mus musculus [13], the result was Active. Moreover, the Activity entry with Mus musculus [14] (DDE = dose-dependent effect) is “Dde”; in data set [10], 46.7 µM. Moreover, the Ki in data set [6] is greater than 10 µM; at Mu-type opioid receptor it was greater than 10 µM; in data set [1], greater than 10 µM; in data set [8], greater than 10 µM; in [2], 0.668 µM.
As to `NC(=O)c1ccc(C(=O)OCCCCN2CCC(O)(c3ccc(Cl)cc3)CC2)cc1`, the Ki in data set [6] was greater than 10 µM; at Mu-type opioid receptor, greater than 10 µM; in [1], 0.933 µM; in data set [8], greater than 10 µM; in [2] it was 0.126 µM.
Turning to `NC(=O)c1ccc(C(=O)NC2CCN(Cc3ccccc3)CC2)cc1`, the inhibition constant Ki (in data set [6]; on Mu-type opioid receptor; in data set [8]) was greater than 10 µM in each case.
As to `O=C(NC1CCN(Cc2ccccc2)CC1)c1ccc(F)cc1`, the results for the inhibition constant Ki in [21], in data set [22] and in data set [2] were 0.19 µM, 0.006 µM and 0.006 µM, respectively.
As to `Oc1ccc2c3c1O[C@H]1c4[nH]c5ccccc5c4C[C@@]4(O)[C@@H](C2)N(CC2CC2)CC[C@]314` [NALTRINDOLE], the Ki in data set [8] came out at 0.00253 µM.
In the case of `NC(=O)c1ccc(C(=O)OC(CCCN2CCC(O)(c3ccc(Cl)cc3)CC2)c2ccc(F)cc2)cc1` (stereo not drawn), the inhibition constant (Ki) in [6] was greater than 10 µM; on Mu-type opioid receptor it was 0.817 µM; in data set [1], 0.618 µM; in [8] it was greater than 10 µM; in data set [2], 0.173 µM.
Turning to `NC(=S)c1ccc(C(=O)OC(CCCN2CCC(O)(c3ccc(Cl)cc3)CC2)c2ccc(F)cc2)cc1` (stereo not drawn), the Ki is greater than 10 µM in data set [6]; 1.46 µM at Mu-type opioid receptor; 0.311 µM in data set [1]; greater than 10 µM in data set [8]; 0.156 µM in data set [2]. Further, the Activity in data set [10] was determined as 51.7 µM.
In the case of `NC(=O)c1ccc(C(=O)O)cc1`, the Ki (in data set [6]; on Mu-type opioid receptor; in data set [1]; in data set [8]; in data set [2]) was greater than 10 µM each time.

For the origin of these results see ChEMBL document CHEMBL5131436, “Dual Sigma-1 receptor antagonists and hydrogen sulfide-releasing compounds for pain treatment: Design, synthesis, and pharmacological evaluation” (Eur J Med Chem, 2022).
